Series [1] is described as follows: Oral bioavailability (rat). Format: in vivo. The following applies: for bioavailability: in vivo, po.
In series [2] the target is HSV-2 thymidine kinase (Human herpesvirus 2, UniProt P89446). The experiment in a line: inhibition of HSV-2 thymidine kinase. The series is classed as biochemical. Here is the method:
In this test procedure, the assay mixture contains 50 mmol Tris HCl, pH 8, 5 mmol magnesium chloride, 5 mmol ATP, 0.3 μmol ^3 H-thymidine (50 Ci/mmol), suitably diluted enzyme preparation and various concentrations of test compounds in a total volume of 100 μl. Assays are incubated at 37° C. for 30 minutes and the reaction is terminated by immersion in a boiling water bath for 2 minutes. 85 μl aliquots from each assay are then dried on to DEAE-cellulose paper discs and the unphosphorylated ^3 H-thymidine is removed by washing in 4 mmol ammonium formate. The radioactivity remaining bound to the discs is then measured by scintillation spectrophotometry. The degree of inhibition at each concentration of test compound is expressed as a percentage of the control reaction (100%) after subtracting a measured blank value which represents the amount of radioactivity bound to the disc from a reaction containing heat-inactivated enzymes. The lC50 value, namely the concentration of test compound which inhibits enzyme activity by 50%, is then calculated.

The mark [3] stands for this setting: 37° C., 30 minutes, pH 8, 3H-thymidine, read-out: Activity against HSV-2 TK, IC50.

Here are results for seven compounds from patent US5698532A, “Pyrimidine nucleosides and methods for treating viral infections with same” (priority 1995, dated 1997).

Molecules are shown by their SMILES. Where two headings read alike, the source gives them in different places.

What is called bioavailability is dose-corrected exposure relative to a reference, in per cent. Low readings indicate little systemic uptake, high ones much systemic uptake. As a reminder, the IC50 is the point on the concentration scale where inhibition reaches its midpoint.

Sequence of HSV-2 thymidine kinase (P89446 whole entry): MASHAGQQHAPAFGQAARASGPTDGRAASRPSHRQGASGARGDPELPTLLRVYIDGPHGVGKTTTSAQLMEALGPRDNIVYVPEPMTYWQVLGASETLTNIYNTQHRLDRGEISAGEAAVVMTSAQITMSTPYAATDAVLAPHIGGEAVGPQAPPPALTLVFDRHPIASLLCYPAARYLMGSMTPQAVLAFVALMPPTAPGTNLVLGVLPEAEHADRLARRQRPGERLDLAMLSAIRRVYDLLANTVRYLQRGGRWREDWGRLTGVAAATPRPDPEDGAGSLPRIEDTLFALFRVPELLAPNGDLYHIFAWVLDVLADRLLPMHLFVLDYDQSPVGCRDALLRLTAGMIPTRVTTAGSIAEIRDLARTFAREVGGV

For the compound `CCc1cn([C@@H]2O[C@H](CNC(=O)C(C)Oc3ccc(Cl)cc3Cl)[C@@H](O)[C@@H]2F)c(=O)[nH]c1=O` (single isomer, unassigned) [Compound B, diastereoisomer b], in series [1], the “Oral bioavailability (rat)” value is given as 12.9%. For the compound `CCc1cn([C@H]2C[C@H](O)[C@@H](CNC(=O)C(C)Oc3ccc(Cl)cc3Cl)O2)c(=O)[nH]c1=O` (single isomer, unassigned) [Compound A, diastereoisomer a], in series [1], the bioavailability came to 2.84%. Regarding `CCc1cn([C@@H]2O[C@H](CNC(=O)C(C)Oc3ccc(Cl)cc3Cl)[C@@H](O)[C@@H]2F)c(=O)[nH]c1=O` (mixture of isomers) [Compound B], the concentration for half-maximal inhibition (IC50) in series [2] (setting [3]) was 4 nM. As to `CCc1cn([C@H]2C[C@H](O)[C@@H](CNC(=O)C(C)Oc3ccc(Cl)cc3Cl)O2)c(=O)[nH]c1=O` (mixture of isomers) [Compound A], in series [2] (setting [3]), the IC50 stood at 3.7 nM. Consider `CCc1cn([C@H]2C[C@H](O)[C@@H](CNC(=O)C(C)Oc3ccc(Cl)cc3Cl)O2)c(=O)[nH]c1=O` (single isomer, unassigned) [compound A, diastereoisomer b], for which the “Oral bioavailability (rat)” value in series [1] is on record as “too low to calculate”. `CCc1cn([C@@H]2O[C@H](CNC(=O)C(C)Oc3ccc(Cl)cc3Cl)[C@@H](O)[C@@H]2F)c(=O)[nH]c1=O` (single isomer, unassigned) [Compound B, diastereoisomer a] returned a bioavailability in series [1] of 14.4%.

For `CCc1cn([C@@H]2O[C@H](CNC(=O)[C@H](C)Oc3cc(OC)c(Cl)cc3Cl)[C@@H](O)[C@@H]2F)c(=O)[nH]c1=O` [Compound (I), 1-[5-[2(S)-(2,4-dichloro-5-methoxy-phenoxy)propionamido]-2,5-dideoxy-2-fluoro-β-D-arabino-furanosyl]-5-ethyluracil], the IC50 in series [2] came out at 0.18 nM. Moreover, the bioavailability in series [1] came out at 26%.
